Data taken from article PMC10518010, “The leaderless communication peptide (LCP) class of quorum-sensing peptides is broadly distributed among Firmicutes” (Nature Communications, 2023).
Each block holds one molecule with its values, some of them ahead of it. Where a SMILES comes first, the peptide text is derived from it. The star is where a group is joined. FITC = O=C1OC2(c3ccc(O)cc3Oc3cc(O)ccc32)c2ccc(NC(=S)*)cc21

Assays:
WT S. salivarius = conditions: 30 min, fluorescence and microscopy
From the text: Cells were harvested by centrifugation, and washed three times with sterile PBS. Cells were fixed on the coverslip using 1% glutaraldehyde and 3% formaldehyde. The images were taken using a Nikon Eclipse TiN-STORM super resolution microscope equipped with iXon3 897 EM-CCD camera.

RopB = conditions: S. pyogenes; cited from earlier work
From the text: (§1) Recently, we discovered a new class of leaderless communication peptide (LCP) in human pathogen Streptococcus pyogenes that controls bacterial virulence (Fig. 1a)[10]. Contrary to characterized bacterial peptide signals, the LCP, known as SpeB-inducing peptide (SIP), is synthesized from a 24 base pair ultrasmall open reading frame (usORF) encoding a mature 8 amino acid peptide without the amino acid sequences required for secretion and processing. Consistent with the lack of hallmarks of bacterial peptide signals, the canonical machineries required for the export and import of qs peptides ...

[1] = test system: secreted cysteine protease SpeB; conditions: S. pyogenes; cited from earlier work
From the text: as §1

[2] = test system: bacterial virulence in animal models of infection; conditions: cited from earlier work
From the text: as §1

[3] = test system: specific DNA/promoter sequences; conditions: peer review response; ref "our detailed published findings"; cited from earlier work
From the text: page 13: not provide the desired explanation for the differences in the binding sites of both receptors. Consequently, we provided analyses and explanation in the previous version that is supported by the data and meaningful. - Regarding this point, it has recently been published that RopB-GAS might act as a repressor and not as a transcriptional activator (DOI: 10.26508/lsa.202201809), as the authors show for RopBss. Could this fact explain the differences in their binding sites? Perhaps this point would be interesting to discuss in the manuscript. RESPONSE: We are aware of this study. Howeve ...

[4] = biological target: FITC-labeled synthetic LCPss (S. salivarius); experiment: fluorescence polarisation; purified RopBss titrated against FITC-labeled LCPss; 20 mM potassium phosphate pH 6.0, 75 mM NaCl, 2% DMSO, 1 mM EDTA, 0.0005% Tween 20

Molecule: CC[C@H](C)[C@H](NC(=O)[C@H](CC(C)C)NC(=O)[C@H](Cc1c[nH]c2ccccc12)NC(=O)[C@H](CCSC)NC(=S)Nc1ccc2c(c1)C(=O)OC21c2ccc(O)cc2Oc2cc(O)ccc21)C(=O)N[C@@H](CC(C)C)C(=O)N[C@@H](CC(C)C)C(=O)N[C@@H](Cc1ccccc1)C(=O)N[C@@H](CC(C)C)C(=O)O [FITC-LCPss] ({FITC}-MWLILLFL-OH)
- Internalization of exogenously added peptide (in words) (WT S. salivarius): internalization of the exogenously added FITC-labeled synthetic LCPss

Molecule: MWLLLLFL [SIP, SpeB-inducing peptide of Streptococcus pyogenes, mature 8 amino acid peptide]
- Binding to RopB (in words) (RopB): binds to a RRNPPA-family transcription activator, Regulator of Protease B (RopB)
- SpeB regulation (in words) [1]: upregulation of an adjacently located virulence factor, a secreted cysteine protease SpeB
- Bacterial virulence (in words) [2]: increased bacterial virulence in animal models of infection
- RopB binding to promoter sequences in the presence of SIP (in words) [3]: with high affinity only in the presence of SIP

- Kd [4]: 8 nM
Molecule: RopBss (RopB homolog, cytosolic LCP receptor of Streptococcus salivarius)
